Several values for one entry are separate records, joined by “and”; a condition that tells them apart may be missing. Equal values may be shown once. Entries after “also recorded” stand apart in the source; their conditions may differ.
Legend:
[1] = biological target: T1, GTF Ss (Streptococcus sanguinis, UniProt A3CLJ9); assay: GTF activity adsorbed onto sHA surface, GTF Ss; format: biochemical, S. sanguinis
Protocol: (§1) Glucosyltransferase activity was measured by the incorporation of [^14C-glucose] from labeled sucrose (NEN Research Products, Boston, Mass.) into glucans (Germaine et al., 1974; Venkitaraman et al., 1995). The GTF enzyme added to each sample for all assays was equivalent to the amount required to incorporate 1.0-1.5 μmol of glucose over the four hours reaction (1.0-1.5 units).
(§2) For surface assays, the GTFs were adsorbed to hydroxyapatite beads coated with clarified whole saliva (free of GTF activity), as detailed elsewhere (Koo et al., 2000c; Schilling and Bowen, 1988, Venkitaraman et al., 1995). The saliva-coated hydroxyapatite (sHA) beads were exposed to sufficient enzyme to saturate the surface as determined experimentally. Following the adsorption of the enzyme, the beads were washed 3 times with buffer to remove the loosely bound material and exposed to 300 μl of the two-fold dilution series of test compounds (or control) for 30 min. at the same concentrations described above. The beads were washed and exposed to 300 μl [^14C-glucose]-sucrose substrate (100.0 mmol/l sucrose, final concentration). The radiolabeled glucan formed was collected and quantified by scintillation counting (Germaine et al., 1974; Venkitaraman et al., 1995). All the solution and surface assays were done in quadruplicate in at least 3 different experiments.

[2] = test system: S. mutans UA159 and S. sobrinus 6715 biofilms; assay: Time-kill assay in 5-day-old biofilms; format: cell-based; details: 1.33 mM (fluoride 250 ppm)
Protocol: Cells of mutans streptococci were grown in tryptone-yeast extract broth with addition of 1% (w/v) sucrose at 37° C. and 5% CO2. […] The killing assays were performed according to Phan et al. (2000). […] The homogenized suspension was serially diluted (10^1 to 10^4) and plated on tryptic soy agar or blood agar by means of a spiral plater (Autoplate model 3000, Spiral Biotech, Inc., Bethesda, Md). […] Killing curves were constructed by plotting log10 CFU/ml versus time over 4 h. All the assays were carried out in quadruplicate on at least 3 different occasions. Bactericidal effect was defined as a ≧3 log10 decreases in the CFU/ml from initial viable counts, at time zero. The potential for drug carry-over to produce falsely low viability counts was minimized by dilution of inocula and plating of small volumes of diluted samples (50 μl).

[3] = test system: Streptococcus sobrinus 6715; assay: Rat caries experiment: S. sobrinus recovered from the jaws; format: in vivo, Sprague Dawley rats; details: rats, topical twice daily, five weeks; 1.33 mM (fluoride 250 ppm); means (SD)
Protocol: (§3) Seven litters of ten female Sprague Dawley rats aged 14 days were purchased with their dams from Charles River (Kingston, N.Y., USA). […] The experiment proceeded for five weeks, at which time the animals were killed by CO2 asphyxiation. The lower left jaw was aseptically dissected, suspended in 5.0 mL of sterile saline solution, and sonicated (three 10-second pulses with 5-second intervals at 30 watts, Branson Sonifier 450). The suspension was plated on mitis salivarius agar plus streptomycin to estimate S. sobrinus population and on blood agar to determine total cultivable flora (TCF). […] The determination of caries score was blind by codification of the jaws and was done by 1 calibrated examiner. […] The level of significance was 5%.

[4] = test system: dental caries; assay: Rat caries experiment: caries scores (Larson's modification of Keyes' system); format: in vivo, Sprague Dawley rats; details: Ds and Dm levels; tt-farnesol Dm only; p<0.05
Protocol: as §3

[5] = biological target: T2, GTF B (Streptococcus mutans serotype c, UniProt P08987); assay: GTF activity adsorbed onto saliva-coated hydroxyapatite (sHA) surface, GTF B; format: biochemical
T2 construct: made in house; host or cells: Streptococcus milleri KSB8 (culture supernatant)
T2 sequence (P08987 35-1476): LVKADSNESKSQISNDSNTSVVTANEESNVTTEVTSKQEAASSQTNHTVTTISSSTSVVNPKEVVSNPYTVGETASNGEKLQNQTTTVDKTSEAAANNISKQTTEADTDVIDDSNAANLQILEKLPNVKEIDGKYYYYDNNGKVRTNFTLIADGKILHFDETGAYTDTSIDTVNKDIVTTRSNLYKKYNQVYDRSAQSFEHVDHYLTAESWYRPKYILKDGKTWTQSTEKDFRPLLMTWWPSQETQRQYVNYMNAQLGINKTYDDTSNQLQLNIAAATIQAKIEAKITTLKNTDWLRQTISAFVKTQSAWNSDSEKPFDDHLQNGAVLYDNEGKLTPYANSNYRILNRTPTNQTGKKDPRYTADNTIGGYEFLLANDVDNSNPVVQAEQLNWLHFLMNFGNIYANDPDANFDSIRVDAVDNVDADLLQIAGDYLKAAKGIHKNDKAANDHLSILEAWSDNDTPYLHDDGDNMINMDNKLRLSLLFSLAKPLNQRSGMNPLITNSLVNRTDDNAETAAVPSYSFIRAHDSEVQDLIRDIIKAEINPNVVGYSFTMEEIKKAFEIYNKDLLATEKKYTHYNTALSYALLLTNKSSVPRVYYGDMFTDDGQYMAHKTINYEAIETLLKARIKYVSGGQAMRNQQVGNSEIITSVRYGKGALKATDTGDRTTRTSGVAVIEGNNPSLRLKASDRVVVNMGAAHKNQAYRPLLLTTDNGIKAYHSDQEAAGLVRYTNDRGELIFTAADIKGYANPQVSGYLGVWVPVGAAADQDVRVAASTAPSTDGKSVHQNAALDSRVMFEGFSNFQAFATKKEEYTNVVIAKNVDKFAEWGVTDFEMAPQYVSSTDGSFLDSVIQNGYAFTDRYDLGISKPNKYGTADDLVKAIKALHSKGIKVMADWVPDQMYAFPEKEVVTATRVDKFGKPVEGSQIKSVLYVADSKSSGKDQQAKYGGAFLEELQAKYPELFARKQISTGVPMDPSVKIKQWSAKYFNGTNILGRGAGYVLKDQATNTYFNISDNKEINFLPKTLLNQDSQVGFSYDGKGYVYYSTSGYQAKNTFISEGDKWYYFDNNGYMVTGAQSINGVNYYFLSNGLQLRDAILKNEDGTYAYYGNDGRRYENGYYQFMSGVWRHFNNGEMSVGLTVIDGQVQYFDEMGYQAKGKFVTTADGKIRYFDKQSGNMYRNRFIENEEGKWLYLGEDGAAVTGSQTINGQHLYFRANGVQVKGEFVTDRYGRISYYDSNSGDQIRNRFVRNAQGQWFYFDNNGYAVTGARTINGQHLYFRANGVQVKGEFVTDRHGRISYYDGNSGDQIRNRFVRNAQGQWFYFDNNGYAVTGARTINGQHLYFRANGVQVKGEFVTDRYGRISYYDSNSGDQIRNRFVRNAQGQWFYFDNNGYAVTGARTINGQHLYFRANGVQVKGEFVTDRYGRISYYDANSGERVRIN
Protocol: as §1, §2

[6] = test system: T3, streptococcal GTFs; assay: GTF activity in solution, all GTFs (B, C, D, Ss) stated together; format: biochemical, Streptococcus mutans, S. sanguinis; details: 1.33 mM
T3 construct: Streptococcus milleri KSB8, which harbors the gtfB gene from S. mutans GS-5 (for GTF B production)
Protocol: The GTF enzyme added to each sample for all assays was equivalent to the amount required to incorporate 1.0-1.5 μmol of glucose over the four hours reaction (1.0-1.5 units).
The samples were incubated 37° C. with rocking for 4 h.
For this assay, a one-way layout experimental design was used in 4×2×7 factorial scheme (enzyme×state×dose). An analysis of variance was carried out and qualitative treatments were compared using Tukey test at level of 5% of significance (p<0.05). A non-linear regression was applied in order to evaluate effects of different concentrations.

[7] = test system: biofilms; assay: Formation of biofilms (continued research); format: cell-based
[8] = biological target: T1, GTF Ss; assay: GTF activity in solution, GTF Ss; format: biochemical, S. sanguinis; details: read-out: GTF Ss sol. % of Inhib.
Protocol: as §1
For solution assays, purified GTF B, C, D and Ss were mixed with a two-fold dilution series of the test compounds (concentration ranging from 125 to 500 μM) and incubated with [^14C-glucose]-sucrose substrate (0.2 μCi/ml) (200.0 mmol/l sucrose, 40 μmol/l dextran 9000, 0.02% sodium azide in adsorption buffer—50 mM KCl, 1.0 mM KPO4, 1.0 mM CaCl2, 0.1 mM MgCl2−pH=6.5) to reach a final concentration of 100 mmol/l sucrose (200 μl final volume). For the control, the same reaction was carried out, where ethanol:DMSO (final concentration of 7.5% and 1.25%, v/v) or ethanol (final concentration of 5%, v/v) replaced the test agent solutions. The samples were incubated 37° C. with rocking for 4 h. After incubation, ice-cold ethanol (1.0 ml) was added and the samples were stored for 18 h, 4° C. for precipitation of glucans. Radiolabeled glucan was determined by scintillation counting (Germaine et al., 1974; Venkitaraman et al., 1995).

[9] = test system: Mutans Streptococci Strains; assay: MIC and MBC, broth dilution, all strains stated together; format: cell-based, S. mutans (GS-5 and UA159) and S. sobrinus 6715; details: Streptococcus mutans; all strains tested (S. mutans GS-5, UA159, S. sobrinus 6715); read-out: MIC
Protocol: The minimum inhibitory concentration (MIC) and minimum bactericidal concentration (MBC) were determined for each test compound according to the National Committee for Clinical Laboratory Standards guidelines (Tentative standard M26-T, 1992; NCCLS Publication No. M7-A5, 2000) and Koo et al. (2000b). The broth microdilution and macrodilution methods (in TSB) were used for the antibacterial tests. The starting inoculum was 5×10^5 CFU/ml and the concentrations of test compounds ranged from 15.6 to 500 μM (two-fold dilutions). The MICs and MBCs were determined in quadruplicate in at least 3 different experiments.

[10] = read-out: GTF Ss surf. % of Inhib.
[11] = read-out: GTF B surf. % of Inhib.

`O=c1cc(-c2ccc(O)cc2)oc2cc(O)cc(O)c12` [Apigenin] gave an inhibition at 125 µM [1, 10] of 13.8%, an inhibition at 250 µM [1, 10] of 20.2% and an inhibition at 500 µM [1, 10] of 30%. The IC50 ([1]; read-out: IC50 for surface-adsorbed GTF SS, surface-adsorbed) was greater than 1000 µM, the “antibacterial activity against mutans streptococci biofilms (in words)” value [2] was “devoid of antibacterial effects; also recorded: negligible antibacterial activity” and the “Infection by S. sobrinus, %” value [3] was 40.6 (14.2)^ab %. The “smooth-surface caries severity scores versus control (in words)” value [4] was “significantly lower”, the IC50 ([5]; IC50 for surface-adsorbed GTF B, surface-adsorbed) was 478 µM and 474 µM and the inhibition at 125 µM [5, 11] was 31.8%. The inhibition at 250 µM [5, 11] was 40%, the inhibition at 500 µM [5, 11] was 55.5% and the “inhibition of GTFs in solution” value [6] was 90-95%. For the same molecule, the “formation of biofilms (in words)” value [7] was “inhibits formation of biofilms”, the inhibition at 125 µM [8] was 83.2% and the inhibition at 250 µM [8] was 91.2%. The inhibition at 500 µM [8] was 92.7% and the MIC [9] was greater than 500 µM.
